Like-named read-outs stand apart in the source and are kept apart here.
Legend:
[1] = test system: johnsongrass (Sorghum halepense L.); assay: Test Example 10: pot test on rhizome plants, Example 8 suspension concentrate with Frigate; assay type: in vivo; details: duplicate; for inhibition at 10 g/ha / inhibition at 20 g/ha / inhibition at 30 g/ha / inhibition at 40 g/ha: Sorghum halepense; for inhibition at 10 g/ha: Compound A 10 g/ha
Protocol: Rhizomes of johnsongrass (Sorghum halepense L.) induced to germinate were transplanted in 1/150,000-hectare pots filled with upland soil and arranged in a duplicate system. When the johnsongrass plants grew to a 3- to 6-leaf stage, the oil-based suspension concentrate obtained in Example 8 was diluted with 200 liters/hectare of water containing a predetermined amount of Frigate and was applied foliarly to the plants with a small spray gun.
Seventeen days and fifty six days after treatment (D.A.T.) the growth inhibition of plants was evaluated with visual observation in the same manner as in Test Example 1 and are shown in Table 10.

[2] = test system: common cocklebur (Xanthium strumarium L.); assay: Test Example 9: pot test, Example 8 suspension concentrate with Frigate; assay type: in vivo; details: 22 days after treatment; for inhibition at 40 g/ha: Compound A 40 g/ha
Protocol: Velvetleaf (Abutilon theophrasti MEDIC.) and common cocklebur (Xanthium strumarium L.) seeds were sown in 1/1,000,000-hectare pots filled with upland soil and arranged in a duplicate system. When the velvetleaf plants and common cocklebur plants grew to a 2.1- and 2.3-leaf stage, respectively, the oil-based suspension concentrate obtained in Example 8 was diluted with 500 liters/hectare of water containing a predetermined amount of Frigate and was applied foliarly to the plants with a small spray gun.
Twenty two days after treatment, the growth inhibition of plants was evaluated with visual observation in the same manner as in Test Example 1 and are shown in Table 9.

In the case of `COc1cc(OC)nc(NC(=O)NS(=O)(=O)c2ncccc2C(=O)N(C)C)n1` [Compound A, N-[(4,6-dimethoxypyrimidin-2-yl)aminocarbonyl]-3-dimethylaminocarbonyl-2-pyridinesulfonamide], the “Growth Inhibition (%) of Johnsongrass 17 D.A.T.” value ([1]; Frigate 0.1 % by volume, Compound A 30 g/ha, 17 days after treatment) is reported as 80%, the “Growth Inhibition (%) of Johnsongrass 17 D.A.T.” value ([1]; Frigate 0.2 % by volume, Compound A 20 g/ha, 17 days after treatment) is reported as 80% and the “Growth Inhibition (%) of Johnsongrass 17 D.A.T.” value ([1]; Frigate 0.2 % by volume, Compound A 30 g/ha, 17 days after treatment) is reported as 80%. For the same compound, the “Growth Inhibition (%) of Johnsongrass 56 D.A.T.” value ([1]; Frigate 0.2 % by volume, Compound A 30 g/ha, 56 days after treatment) was 98%, the “Growth Inhibition (%) of Johnsongrass 56 D.A.T.” value ([1]; Frigate: No addition, Compound A 40 g/ha, 56 days after treatment) was 98% and the inhibition at 10 g/ha ([1]; 408 h, Frigate 0.1 % by volume, 17 days after treatment, read-out: Growth Inhibition (%) of Johnsongrass 17 D.A.T.) was 65%. For the same compound, the inhibition at 20 g/ha ([1]; 408 h, Frigate 0.1 % by volume, Compound A 20 g/ha, 17 days after treatment, read-out: Growth Inhibition (%) of Johnsongrass 17 D.A.T.) was 75%, the inhibition at 30 g/ha ([1]; 408 h, Frigate 0.1 % by volume, Compound A 30 g/ha, 17 days after treatment, read-out: Growth Inhibition (%) of Johnsongrass 17 D.A.T.) was 75% and the inhibition at 10 g/ha ([1]; 408 h, Frigate 0.2 % by volume, 17 days after treatment, read-out: Growth Inhibition (%) of Johnsongrass 17 D.A.T.) was 70%. For the same compound, the inhibition at 20 g/ha ([1]; 408 h, Frigate 0.2 % by volume, Compound A 20 g/ha, 17 days after treatment, read-out: Growth Inhibition (%) of Johnsongrass 17 D.A.T.) was 75%, the inhibition at 30 g/ha ([1]; 408 h, Frigate 0.2 % by volume, Compound A 30 g/ha, 17 days after treatment, read-out: Growth Inhibition (%) of Johnsongrass 17 D.A.T.) was 85% and the inhibition at 20 g/ha ([1]; 408 h, Frigate: No addition, Compound A 20 g/ha, 17 days after treatment, read-out: Growth Inhibition (%) of Johnsongrass 17 D.A.T.) was 65%. The inhibition at 30 g/ha ([1]; 408 h, Frigate: No addition, Compound A 30 g/ha, 17 days after treatment, read-out: Growth Inhibition (%) of Johnsongrass 17 D.A.T.) was 60%, the inhibition at 40 g/ha ([1]; 408 h, Frigate: No addition, Compound A 40 g/ha, 17 days after treatment, read-out: Growth Inhibition (%) of Johnsongrass 17 D.A.T.) was 65% and the inhibition at 10 g/ha ([1]; 1344 h, Frigate 0.1 % by volume, 56 days after treatment, read-out: Growth Inhibition (%) of Johnsongrass 56 D.A.T.) was 100%. For the same compound, the inhibition at 20 g/ha ([1]; 1344 h, Frigate 0.1 % by volume, Compound A 20 g/ha, 56 days after treatment, read-out: Growth Inhibition (%) of Johnsongrass 56 D.A.T.) was 100%, the inhibition at 30 g/ha ([1]; 1344 h, Frigate 0.1 % by volume, Compound A 30 g/ha, 56 days after treatment, read-out: Growth Inhibition (%) of Johnsongrass 56 D.A.T.) was 100% and the inhibition at 10 g/ha ([1]; 1344 h, Frigate 0.2 % by volume, 56 days after treatment, read-out: Growth Inhibition (%) of Johnsongrass 56 D.A.T.) was 100%. The inhibition at 20 g/ha ([1]; 1344 h, Frigate 0.2 % by volume, Compound A 20 g/ha, 56 days after treatment, read-out: Growth Inhibition (%) of Johnsongrass 56 D.A.T.) was 100%, the inhibition at 30 g/ha ([1]; 1344 h, Frigate 0.2 % by volume, Compound A 30 g/ha, 56 days after treatment, read-out: Growth Inhibition (%) of Johnsongrass 56 D.A.T.) was 100% and the inhibition at 20 g/ha ([1]; 1344 h, Frigate: No addition, Compound A 20 g/ha, 56 days after treatment, read-out: Growth Inhibition (%) of Johnsongrass 56 D.A.T.) was 90%. For the same compound, the inhibition at 40 g/ha ([1]; 1344 h, Frigate: No addition, Compound A 40 g/ha, 56 days after treatment, read-out: Growth Inhibition (%) of Johnsongrass 56 D.A.T.) was 100%, the “Growth Inhibition (%) Common Cocklebur” value ([2]; Frigate 0.25 % by volume, Compound A 10 g/ha, duplicate) was 25% and the “Growth Inhibition (%) Common Cocklebur” value ([2]; Frigate: No addition, Compound A 20 g/ha, duplicate) was 40%. For the same compound, the inhibition at 10 g/ha ([2]; Xanthium strumarium, 528 h, Frigate 0.125 % by volume, Compound A 10 g/ha, duplicate, read-out: Growth Inhibition (%) Common Cocklebur) was 35%, the inhibition at 20 g/ha ([2]; Xanthium strumarium, 528 h, Frigate 0.125 % by volume, Compound A 20 g/ha, duplicate, read-out: Growth Inhibition (%) Common Cocklebur) was 80% and the inhibition at 40 g/ha ([2]; Xanthium strumarium, 528 h, Frigate 0.125 % by volume, duplicate, read-out: Growth Inhibition (%) Common Cocklebur) was 100%. It also gave an inhibition at 10 g/ha ([2]; Xanthium strumarium, 528 h, Frigate 0.25 % by volume, Compound A 10 g/ha, duplicate, read-out: Growth Inhibition (%) Common Cocklebur) of 30%, an inhibition at 20 g/ha ([2]; Xanthium strumarium, 528 h, Frigate 0.25 % by volume, Compound A 20 g/ha, duplicate, read-out: Growth Inhibition (%) Common Cocklebur) of 95% and an inhibition at 40 g/ha ([2]; Xanthium strumarium, 528 h, Frigate 0.25 % by volume, duplicate, read-out: Growth Inhibition (%) Common Cocklebur) of 100%. It also gave an inhibition at 10 g/ha ([2]; Xanthium strumarium, 528 h, Frigate 0.5 % by volume, Compound A 10 g/ha, duplicate, read-out: Growth Inhibition (%) Common Cocklebur) of 60%, an inhibition at 20 g/ha ([2]; Xanthium strumarium, 528 h, Frigate 0.5 % by volume, Compound A 20 g/ha, duplicate, read-out: Growth Inhibition (%) Common Cocklebur) of 98% and an inhibition at 40 g/ha ([2]; Xanthium strumarium, 528 h, Frigate 0.5 % by volume, read-out: Growth Inhibition (%) Common Cocklebur) of 100%. The inhibition at 40 g/ha ([2]; Xanthium strumarium, 528 h, Frigate: No addition, duplicate, read-out: Growth Inhibition (%) Common Cocklebur) was 85% and the inhibition at 50 g/ha ([2]; Xanthium strumarium, 528 h, Frigate: No addition, Compound A 50 g/ha, duplicate, read-out: Growth Inhibition (%) Common Cocklebur) was 95%.
